{"source": "patent US5523406A", "about": "“2-substituted tertiary carbinol derivatives of 1,5-iminosugars” (G. D. Searle & Co., priority 1994, dated 1996)", "key": {"HIV-1, strain HTVL-IIIB": {"system": "HIV-1, strain HTVL-IIIB", "experiment": "Inhibition of HIV-1 cytopathogenic effect in Leu-3a-positive CEM cells, MTT endpoint (Method B)", "format": "cell-based", "conditions": "Human immunodeficiency virus 1, IIIB, CCRF-CEM, 216 h, read-out: ID50 (the source's name)", "procedure": "(§1) These tests involved plating of susceptible human host cells which are syncytium-sensitive with and without virus in microculture plates, adding various concentrations of the test compound, incubating the plates for 9 days (during which time infected, non-drug treated control cells are largely or totally destroyed by the virus), and then determining the number of remaining viable cells using a colorimetric endpoint.\nVarious illustrative compounds synthesized above were tested for inhibition of visna virus in vitro in a plaque reduction assay (Method A) or for inhibition of HIV-1 in a test which measured reduction of cytopathogenic effect in virus-infected synctium-sensitive Leu-3a-positive CEM cells grown in tissue culture (Method B) as follows:\n(§2) Tissue culture plates were incubated at 37° C. in a humidified, 5% CO2 atmosphere and observed microscopically for toxicity and/or cytopathogenic effect (CPE). At 1 hour prior to infection, each test article was prepared from the frozen stock, and a 20 μl volume of each dilution (prepared as a 10× concentration) was added to the appropriate wells of both infected and uninfected cells.\n(§3) On the 9th day post-infection, the cells in each well were resuspended and a 100 μl sample of each cell suspension was removed for use in an MTT assay. A 20 μl volume of a 5 mg/ml solution of 3-(4,5-dimethylthiazol-2-yl)-2,5-diphenyltetrazolium bromide (MTT) was added to each 100 μl cell suspension, and the cells were incubated at 37° C. in 5% CO2 for 4 hours. […] A 100 μl volume of a solution of 10% sodium dodecyl sulfate in 0.01N hydrochloric acid was added to each sample, and the samples were incubated overnight. The absorbance at 590 nm was determined for each sample using a Molecular Devices Vmax microplate reader. This assay detects drug-induced suppression of viral CPE, as well as drug cytotoxicity, by measuring the generation of MTT-formazan by surviving cells.\n(§4) Assays were done in 96-well tissue culture plates. CEM cells were treated with polybrene at a concentration of 2 μg/ml, and an 80 μl volume of cells (1×10^4 cells) was dispensed into each well. A 100 μl volume of each test article dilution (prepared as a 2 ×concentration) was added to 5 wells of cells, and the cells were incubated at 37° C. for 1 hour. A frozen culture of HIV-1, strain HTVL-IIIB, was diluted in culture medium to a concentration of 5×10^4 TCID50 per ml, and a 20 μl volume (containing 10^3 TCID50 of virus) was added to 3 of the wells for each test article concentration. […] A 20 μl volume of normal culture medium was added to the remaining wells to allow evaluation of cytotoxicity. Each plate contained 6 wells of untreated, uninfected, cell control samples and 6 wells of untreated, infected, virus control samples."}, "in vitro": {"experiment": "in vitro", "format": "cell-based", "conditions": "human, cem cells", "procedure": "as §1, §2, §3, §4"}, "[1]": {"conditions": "Table I, Anti HIV Activity, CEM cells, 9 days"}}, "note": "Like-named read-outs stand apart in the source and are kept apart here.", "data": [{"smiles": "C[C@]1(O)CN[C@@H]2CO[C@@H](c3ccccc3)O[C@H]2[C@@H]1O", "note": "[XIV, 1,5-dideoxy-1,5-imino-2-C-methyl-4,6-O-(R-phenylmethylene)TD-glucitol]", "values": [{"measurement": "IC50", "setting": "HIV-1, strain HTVL-IIIB; Example 38, inhibition of HIV", "value": 513, "unit": "µg/mL"}]}, {"smiles": "CCCCN1C[C@](C)(O)[C@@H](O)[C@H](O)[C@H]1CO", "note": "[XVIA, 1,5-Butylimino-1,5-dideoxy-2-C-methyl-D-glucitol]", "values": [{"measurement": "IC50", "setting": "HIV-1, strain HTVL-IIIB; [1]", "value": 237, "unit": "µg/mL"}, {"measurement": "cytotoxicity at 216 h", "setting": "in vitro", "value": 20, "unit": "%"}]}, {"smiles": "CC1(O)CN(CCCc2ccccc2)C(CO)C(O)C1O", "note": "[XVIB, 1,5-(3-phenylpropylimino)-1,5-dideoxy-2-C-methyl-D-glucitol]", "values": [{"measurement": "IC50", "setting": "HIV-1, strain HTVL-IIIB; [1]", "value": 492, "unit": "µg/mL"}, {"measurement": "cytotoxicity at 216 h", "setting": "in vitro", "value": 40, "unit": "%"}]}, {"smiles": "CCC(CC)CN1C[C@](C)(O)[C@@H](O)[C@H](O)[C@H]1CO", "note": "[XVIC, 1,5-(2-ethylbutylimino) -1,5-dideoxy-2-C-methyl-D-glucitol]", "values": [{"measurement": "IC50", "setting": "HIV-1, strain HTVL-IIIB; [1]", "value": 6, "unit": "µg/mL"}, {"measurement": "CC50 at 216 h", "setting": "in vitro", "value": 349, "unit": "µg/mL"}]}, {"smiles": "CCCCN1C[C@H](O)[C@@H](O)[C@H](O)[C@H]1CO", "note": "[n-Bu, N-butyl DNJ, reference compound]", "values": [{"measurement": "IC50", "setting": "HIV-1, strain HTVL-IIIB; [1]", "value": 34, "unit": "µg/mL"}, {"measurement": "CC50 at 216 h", "setting": "in vitro", "value": "> 500", "unit": "µg/mL"}]}]}
